Data taken from patent US20230365627A1, “MACROCYCLIC PEPTIDE BORONATE IMMUNOMODULATORS” (Bristol-Myers Squibb Company, priority 2020, published 2023).
*1 amine or outer side, *2 acyl side, *3 side chain or, on linkers, in order; H or OH if unused. Where a SMILES comes first, the peptide text is derived from it. Bridges are numbered along the chain shown (N, C = ends). [ ]: non-standard residue; d: D form. Trp(1-CH2CO) = O=C([C@H](Cc1cn(CC(=O)[*:3])c2ccccc12)N[*:1])[*:2]; X25 = O=C([C@H](CNCc1cc(F)c(B(O)O[*:3])c(F)c1)N[*:1])[*:2]; X28 = O=C([C@H](CNCc1cc(F)c(F)cc1B(O)O[*:3])N[*:1])[*:2]; X29 = COc1ccc(B(O)O[*:3])c(CNC[C@H](N[*:1])C(=O)[*:2])c1; Trp(1-CH2COOH) = N[C@@H](Cc1cn(CC(=O)O)c2ccccc12)C(=O)O; X31 = O=C([C@H](CNCc1ccc(Cl)cc1B(O)O[*:3])N[*:1])[*:2]; X19 = O=C([C@H](CNCc1cccc(B(O)O[*:3])c1F)N[*:1])[*:2]; X6 = O=C([C@H](CNCc1cccc(B(O)O[*:3])c1)N[*:1])[*:2]; X1 = Cc1cc(CNC[C@H](N[*:1])C(=O)[*:2])cc(C)c1B(O)O; X20 = O=C([C@H](CCNCc1cccc(B(O)O)c1F)N[*:1])[*:2]; Hyp = O=C(O)[C@@H]1C[C@@H](O)CN1; NMeNle = CCCC[C@H](NC)C(=O)O; NMeA = CN[C@@H](C)C(=O)O; Dab = NCC[C@H](N)C(=O)O

molecular target: PD-1/PD-L1 (Homo sapiens (Human), UniProt Q9NZQ7); assay: PD-1/PD-L1 Homogenous Time-Resolved Fluorescence (HTRF) binding assay; conditions: PD-L1-His 10 nM, PD-1-Ig 20 nM; read-out: HTRF IC50
Text: Methods for Testing the Ability of Macrocyclic Peptides to Compete for the Binding of PD-1 to PD-L1 Using Homogenous Time-Resolved Fluorescence (HTRF) Binding Assays
The ability of the compounds of formula (I) to bind to PD-L1 was investigated using a PD-1/PD-L1 Homogenous Time-Resolved Fluorescence (HTRF) binding assay.
Homogenous Time-Resolved Fluorescence (HTRF) Binding Assay
The interaction of PD-1 and PD-L1 can be assessed using soluble, purified preparations of the extracellular domains of the two proteins. The PD-1 and PD-L1 protein extracellular domains were expressed as fusion proteins with detection tags, for PD-1, the tag was the Fc portion of Immunoglobulin (PD-1-Ig) and for PD-L1 it was the 6 histidine motif (PD-L1-His). All binding studies were performed in an HTRF assay buffer consisting of dPBS supplemented with 0.1% […] bovine serum albumin and 0.05% (v/v) Tween-20. For the h/PD-L1-His binding assay, inhibitors were pre-incubated with PD-L1-His (10 nM final) for 15 m in 4 μl of assay buffer, followed by addition of PD-1-Ig (20 nM final) in 1 μl of assay buffer and further incubation for 15 m. HTRF detection was achieved using europium cryptate-labeled anti-Ig (1 nM final) and allophycocyanin (APC) labeled anti-His (20 nM final). Antibodies were diluted in HTRF detection buffer and 5 μl was dispensed on top of the binding reaction. The reaction mixture was allowed to equilibrate for 30 minutes and the resulting signal (665 nm/620 nm ratio) was obtained using an EnVision fluorometer. Additional binding assays were established between the human proteins PD-1-Ig/PD-L2-His (20 & 5 nM, respectively) and CD80-His/PD-L1-Ig (100 & 10 nM, respectively).
Recombinant Proteins: Human PD-1 (25-167) with a C-terminal human Fc domain of immunoglobulin G (Ig) epitope tag [hPD-1 (25-167)-3S-IG] and human PD-L1 (18-239) with a C-terminal His epitope tag [hPD-L1(18-239)-TVMV-His] were expressed in HEK293T cells and purified sequentially by ProteinA affinity chromatography and size exclusion chromatography. Human PD-L2-His and CD80-His was obtained through commercial sources.
Table 1 lists the IC50 values for representative examples of this disclosure measured in the PD-1/PD-L1 Homogenous Time-Resolved Fluorescence (HTRF) binding assay.

Sequence of PD-1/PD-L1 (Q9NZQ7 18-239): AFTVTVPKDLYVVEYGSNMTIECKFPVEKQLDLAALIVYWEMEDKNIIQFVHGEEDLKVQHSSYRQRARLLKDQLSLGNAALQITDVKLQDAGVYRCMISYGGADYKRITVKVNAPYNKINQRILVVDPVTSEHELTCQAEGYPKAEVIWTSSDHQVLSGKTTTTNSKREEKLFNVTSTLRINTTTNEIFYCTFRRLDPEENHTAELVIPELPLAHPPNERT

First: CCCC[C@H]1C(=O)N(C)[C@@H](CCCC)C(=O)N[C@@H](CC(C)C)C(=O)N[C@H](C(=O)NCC(N)=O)CSCC(=O)N[C@@H](Cc2ccc(O)cc2)C(=O)N(C)[C@@H](C)C(=O)N[C@@H](CC(N)=O)C(=O)N2CCC[C@H]2C(=O)N[C@@H](CNCc2cc(C)c(B(O)O)c(C)c2)C(=O)N[C@@H](CC(C)C)C(=O)N2C[C@H](O)C[C@H]2C(=O)N[C@@H](Cc2c[nH]c3ccccc23)C(=O)N[C@@H](CCN)C(=O)N[C@@H](Cc2cn(CC(=O)O)c3ccccc23)C(=O)N1C [Example 1027] ({CH2CO}-Y[NMeA]NP[X1]L[Hyp]W[Dab][Trp(1-CH2COOH)][NMeNle][NMeNle]LCG-NH2; thioether N-14)
Second: CCCC[C@H]1C(=O)N(C)[C@@H](CCCC)C(=O)N[C@@H](CC(C)C)C(=O)N[C@H](C(=O)NCC(N)=O)CSCC(=O)N[C@@H](Cc2ccc(O)cc2)C(=O)N(C)[C@@H](C)C(=O)N[C@@H](CC(N)=O)C(=O)N2CCC[C@H]2C(=O)N[C@H]2CNCc3cc(F)c(c(F)c3)B(O)OC(=O)Cn3cc(c4ccccc43)C[C@H](NC(=O)[C@H](CCN)NC(=O)[C@H](Cc3c[nH]c4ccccc34)NC(=O)[C@@H]3C[C@@H](O)CN3C(=O)[C@H](CC(C)C)NC2=O)C(=O)N1C [Example 1007] ({CH2CO}-Y[NMeA]NP[X25]L[Hyp]W[Dab][Trp(1-CH2CO)][NMeNle][NMeNle]LCG-NH2; ester 5-10; thioether N-14)
The IC50 of the first is 2.6-fold lower: 3.8 nM for the first, 9.9 nM for the second.

Going from `CCCC[C@H]1C(=O)N(C)[C@@H](CCCC)C(=O)N[C@@H](CC(C)C)C(=O)N[C@H](C(=O)NCC(N)=O)CSCC(=O)N[C@@H](Cc2ccc(O)cc2)C(=O)N(C)[C@@H](C)C(=O)N[C@@H](CC(N)=O)C(=O)N2CCC[C@H]2C(=O)N[C@H]2CNCc3cc(OC)ccc3B(O)OC(=O)Cn3cc(c4ccccc43)C[C@H](NC(=O)[C@H](CCN)NC(=O)[C@H](Cc3c[nH]c4ccccc34)NC(=O)[C@@H]3C[C@@H](O)CN3C(=O)[C@H](CC(C)C)NC2=O)C(=O)N1C` [Example 1006] ({CH2CO}-Y[NMeA]NP[X29]L[Hyp]W[Dab][Trp(1-CH2CO)][NMeNle][NMeNle]LCG-NH2; ester 5-10; thioether N-14) to `CCCC[C@H]1C(=O)N(C)[C@@H](CCCC)C(=O)N[C@@H](CC(C)C)C(=O)N[C@H](C(=O)NCC(N)=O)CSCC(=O)N[C@@H](Cc2ccc(O)cc2)C(=O)N(C)[C@@H](C)C(=O)N[C@@H](CC(N)=O)C(=O)N2CCC[C@H]2C(=O)N[C@H]2CNCc3ccc(Cl)cc3B(O)OC(=O)Cn3cc(c4ccccc43)C[C@H](NC(=O)[C@H](CCN)NC(=O)[C@H](Cc3c[nH]c4ccccc34)NC(=O)[C@@H]3C[C@@H](O)CN3C(=O)[C@H](CC(C)C)NC2=O)C(=O)N1C` [Example 1018] ({CH2CO}-Y[NMeA]NP[X31]L[Hyp]W[Dab][Trp(1-CH2CO)][NMeNle][NMeNle]LCG-NH2; ester 5-10; thioether N-14), the IC50 falls from 9 nM to 4.9 nM (1.8-fold). The second is the more potent here.

`CCCC[C@H]1C(=O)N(C)[C@@H](CCCC)C(=O)N[C@@H](CC(C)C)C(=O)N[C@H](C(=O)NCC(N)=O)CSCC(=O)N[C@@H](Cc2ccc(O)cc2)C(=O)N(C)[C@@H](C)C(=O)N[C@@H](CC(N)=O)C(=O)N2CCC[C@H]2C(=O)N[C@H]2CNCc3cccc(c3F)B(O)OC(=O)Cn3cc(c4ccccc43)C[C@H](NC(=O)[C@H](CCN)NC(=O)[C@H](Cc3c[nH]c4ccccc34)NC(=O)[C@@H]3C[C@@H](O)CN3C(=O)[C@H](CC(C)C)NC2=O)C(=O)N1C` [Example 1015] ({CH2CO}-Y[NMeA]NP[X19]L[Hyp]W[Dab][Trp(1-CH2CO)][NMeNle][NMeNle]LCG-NH2; ester 5-10; thioether N-14) and `CCCC[C@H]1C(=O)N(C)[C@@H](CCCC)C(=O)N[C@@H](CC(C)C)C(=O)N[C@H](C(=O)NCC(N)=O)CSCC(=O)N[C@@H](Cc2ccc(O)cc2)C(=O)N(C)[C@@H](C)C(=O)N[C@@H](CC(N)=O)C(=O)N2CCC[C@H]2C(=O)N[C@H]2CNCc3cc(F)c(F)cc3B(O)OC(=O)Cn3cc(c4ccccc43)C[C@H](NC(=O)[C@H](CCN)NC(=O)[C@H](Cc3c[nH]c4ccccc34)NC(=O)[C@@H]3C[C@@H](O)CN3C(=O)[C@H](CC(C)C)NC2=O)C(=O)N1C` [Example 1024] ({CH2CO}-Y[NMeA]NP[X28]L[Hyp]W[Dab][Trp(1-CH2CO)][NMeNle][NMeNle]LCG-NH2; ester 5-10; thioether N-14) are within 1.5-fold of each other in IC50: 6.7 nM for the first, 9.4 nM for the second.

Compared with `CCCC[C@H]1C(=O)N(C)[C@@H](CCCC)C(=O)N[C@@H](CC(C)C)C(=O)N[C@H](C(=O)NCC(N)=O)CSCC(=O)N[C@@H](Cc2ccc(O)cc2)C(=O)N(C)[C@@H](C)C(=O)N[C@@H](CC(N)=O)C(=O)N2CCC[C@H]2C(=O)N[C@H]2CNCc3ccc(cc3)B3OB(O3)c3cccc(c3)CNCC[C@H](NC(=O)[C@H](Cc3c[nH]c4ccccc34)NC(=O)[C@@H]3C[C@@H](O)CN3C(=O)[C@H](CC(C)C)NC2=O)C(=O)N[C@@H](Cc2cn(CC(=O)O)c3ccccc23)C(=O)N1C` [Example 1005], `CCCC[C@H]1C(=O)N(C)[C@@H](CCCC)C(=O)N[C@@H](CC(C)C)C(=O)N[C@H](C(=O)NCC(N)=O)CSCC(=O)N[C@@H](Cc2ccc(O)cc2)C(=O)N(C)[C@@H](C)C(=O)N[C@@H](CC(N)=O)C(=O)N2CCC[C@H]2C(=O)N[C@H]2CNCc3cccc(c3)B(O)OC(=O)Cn3cc(c4ccccc43)C[C@H](NC(=O)[C@H](CCN)NC(=O)[C@H](Cc3c[nH]c4ccccc34)NC(=O)[C@@H]3C[C@@H](O)CN3C(=O)[C@H](CC(C)C)NC2=O)C(=O)N1C` [Example 1001] ({CH2CO}-Y[NMeA]NP[X6]L[Hyp]W[Dab][Trp(1-CH2CO)][NMeNle][NMeNle]LCG-NH2; ester 5-10; thioether N-14) is 1.9-fold lower in IC50: 7.1 nM for the first, 3.8 nM for the second.

Compared with `CCCC[C@H]1C(=O)N(C)[C@@H](CCCC)C(=O)N[C@@H](CC(C)C)C(=O)N[C@H](C(=O)NCC(N)=O)CSCC(=O)N[C@@H](Cc2ccc(O)cc2)C(=O)N(C)[C@@H](C)C(=O)N[C@@H](CC(N)=O)C(=O)N2CCC[C@H]2C(=O)N[C@@H](CNCc2cc(C)c(B(O)O)c(C)c2)C(=O)N[C@@H](CC(C)C)C(=O)N2C[C@H](O)C[C@H]2C(=O)N[C@@H](Cc2c[nH]c3ccccc23)C(=O)N[C@@H](CCN)C(=O)N[C@@H](Cc2cn(CC(=O)O)c3ccccc23)C(=O)N1C` [Example 1014] ({CH2CO}-Y[NMeA]NP[X1]L[Hyp]W[Dab][Trp(1-CH2COOH)][NMeNle][NMeNle]LCG-NH2; thioether N-14), `CCCC[C@H]1C(=O)N(C)[C@@H](CCCC)C(=O)N[C@@H](CC(C)C)C(=O)N[C@H](C(=O)NCC(N)=O)CSCC(=O)N[C@@H](Cc2ccc(O)cc2)C(=O)N(C)[C@@H](C)C(=O)N[C@@H](CC(N)=O)C(=O)N2CCC[C@H]2C(=O)N[C@H]2CNCc3cccc(c3F)B(O)OC(=O)Cn3cc(c4ccccc43)C[C@H](NC(=O)[C@H](CCNCc3cccc(B(O)O)c3F)NC(=O)[C@H](Cc3c[nH]c4ccccc34)NC(=O)[C@@H]3C[C@@H](O)CN3C(=O)[C@H](CC(C)C)NC2=O)C(=O)N1C` [Example 1022] ({CH2CO}-Y[NMeA]NP[X19]L[Hyp]W[X20][Trp(1-CH2CO)][NMeNle][NMeNle]LCG-NH2; ester 5-10; thioether N-14) is 1.6-fold lower in IC50: 8.2 nM for the first, 5 nM for the second. The second is the more potent here.
